Data set [1] in a line: Mouse acute toxicity by intraperitoneal injection. The note with it: in vivo, ip. The source says:
(§1) Next, among the present compounds [I], α-acetoxy-α-methylaceticacid trimethylammonioethyl ester toluene-4-sulfonate (hereinafter referred to as ALT) and bis(α-acetoxy-α-methylacetic acid trimethylammonioethyl ester) naphthalene-1,5-disulfonate (general name: aclatonium napadisilate) were […] for mouse acute toxicity by intraperitoneal injection as well as for hygroscopicity and stability.

Data set [2] can be described thus: Hygroscopicity on storage. Type of data set: physicochemical. The note with it: (Increased weight)/(Original weight) × 100; 10 days, 30° C., relative humidity 55%. How it is done:
as §1
(§2) Stored for 10 days at room temperature (30° C.) at a relative
*1 Hygroscopicity (%) = (Increased weight)/(Original weight) × 100

The format of data set [3] is physicochemical. The note with it: 10 days, relative humidity 55%; for Appearance: room temperature (30° C.); for Decomposition percentage: hydroxylamine method, 30° C. How it is done:
as §1, §2
*2 Measured in accordance with the hydroxylamine method for ester (Jikken
Kagaku Koza, Vol. 24 Seibutsu Kagaku II, p 253 to 255, Maruzen).
Decomposition percentage (%) = [1 - (absorbance of test
sample)/(absorbance of standard solution)] × 100

Data set [4] concerns senile dementia of Alzheimer's type. Kind of data set: Clinical cases, overall improvement degree and neuropsychiatric symptoms, senile dementia of Alzheimer's type. Type of data set: in vivo, patients. The procedure: (§3) The degree of dementia was diagnosed in patients on the basis of DSM-III criteria with reference to the neuropsychiatric symptoms and findings of the CT scan of the head regions.
(§4) The overall improvement degree of the present drug was evaluated from the neuropsychiatric symptoms, scores of activity of daily living and Hasegawa's rating scales.
Case three senile dementia of Alzheimer's type (Overall severity: Marked high degree)
They began to have a forgetfulness from approx. 4 years ago, and became spiritless and became unable to work, and became not to express their feeling, and had wanderling impulsion. The cerebral atrophy was generally noted by the finding of CT scan of head regions at the admission.
Case four senile dementia of Alzheimer's type (Overall severity: Marked high degree)
They had occasionally a forgetfulness from approx. 10 years ago, and became unable to do agricultural work from approx. 4 years ago. The diffuse cerebral atrophy was noted by the finding of CT scan of head regions at the admission.
Case five senile dementia of Alzheimer's type (Overall severity: Moderate degree)
They began to have a forgetfulness from approx. 2 years ago, and became unable to do household affairs from 1 year ago, and became unable to distinguish their familial faces. The cerebral atrophy and enlargement of cerebral ventricle were noted by the finding of CT scan of head regions at the admission. The treatment was changed to the administration of 300 mg/day of the present drug because the efficacy was ineffective with other cerebral metabolic improvement drugs and cerebral-vasodilators.
Case one senile dementia of Alzheimer's type (overall severity: Moderate degree)
They began to have a forgetfulness and spiritlessness after operation of fracture of neck of femur from 10 years ago. The disorientation was strongly noted from 2-3 years ago. The cerebral atrophy and enlargement of cerebral ventricle were noted by the finding of CT scan of head regions at the admission. The efficacy was ineffective with other various drugs than the present drug.

For data set [5], the system named is Alzheimer's disease. As to the kind of experiment: Clinical case, overall improvement degree and neuropsychiatric symptoms, Alzheimer's disease. The data set is classed as in vivo, patients. The procedure: as §3, §4
Case two a person, Alzheimer's disease (Overall severity: Moderate degree)
They became occasionally aware of slight change of character from 8 years ago, and they lived without specific changes, but they became spiritless and not to express their feeling from 3 years ago. At the admission, they could not work entirely and was spiritless, and had contact disturbance with other patients, and decrease of memory power and judgement power were noted. […] The atrophy of anterior lobe was remarkably noted at the finding of CT scan of head regions at the admission.

For data set [6], the system named is patients. As to the kind of experiment: Side effects in the clinical cases. The data set is classed as in vivo. The note with it: all of the above clinical cases.
Data set [7] concerns dementia. Kind of data set: Neuropsychiatric symptoms accompanying dementia and cognitive function, summary of clinical cases. The data set is classed as in vivo, patients. How it is done:
as §3, §4

A short description of data set [8]: Transference into brain and stimulation of cerebral metabolism. The note with it: in vivo.

The LD50 is the dose at which mortality reaches 50%. A high value points to lower toxicity. In turn, `CC(=O)OC(C)C(=O)OCC[N+](C)(C)C.Cc1ccc(S(=O)(=O)[O-])cc1` (stereo not drawn) [ALT, α-acetoxy-α-methylaceticacid trimethylammonioethyl ester toluene-4-sulfonate] showed an LD50 in data set [1] of 657 mg/kg. This molecule registered a Hygroscopicity in data set [2] of 0.6%. For the same molecule, in data set [3], the Appearance entry is “No change” and the Decomposition percentage amounted to 0.5%.
Turning to `CC(=O)OC(C)C(=O)OCC[N+](C)(C)C` (stereo not drawn) [Aclatonium napadisilate, bis(α-acetoxy-α-methylacetic acid trimethylammonioethyl ester) naphthalene-1,5-disulfonate], the “neuropsychiatric symptoms and activity of daily living” value in data set [4] (Clinical Case 1, 300 mg/day, 2nd week) was “they could gait to outside of room at the 2nd week, and their movement behavior was improved, and spontaneousness increased and feeling became clear”. Besides, the overall improvement degree result in data set [4] (Clinical Case 1, Marked high degree, 300 mg/day) is “improvement”. Besides, the “neuropsychiatric symptoms (spontaneousness, conversation)” value in data set [4] (Clinical Case 2) was “spontaneousness increased, and conversation with other patients increased, and they had favorable communication and became fortunate”. Besides, the overall improvement degree result in data set [4] (Clinical Case 2, Marked high degree) is reported as “slight improvement”. Also, in data set [4] (Clinical Case 3, 300 mg/day), the “decrease of spontaneousness and disturbance of emotion” value was “improved”; the intellectual function entry is on record as “No changes”. In addition, the “activity of daily living and expression” value in data set [4] (Clinical Case 3, 300 mg/day, approx. 2nd week after administration) is “they became able to sit and gait, and eat food by themself and expression became clear”. Further, the overall improvement degree entry in data set [4] (Clinical Case 3, Moderate degree, 300 mg/day) was “slight improvement”. For the same molecule, the “conversation frequency and activity of daily living” value in data set [4] (Clinical Case 4, 300 mg/day, from the 2nd week) is “their conversation frequency with other patients increased and they became able to go out from their room and occasionally go to toilet”. Also, in data set [4] (Clinical Case 4, Moderate degree, 300 mg/day), the overall improvement degree result is “slight improvement”. Further, the defecation entry in data set [5] (Clinical Case 5) is recorded as “defecation became smooth”. Besides, the “movement frequency and spontaneousness” value in data set [5] (Clinical Case 5, 4th week) was “increase of movement frequency and improvement of decrease of spontaneousness”. Besides, in data set [5] (Clinical Case 5, Moderate degree), the overall improvement degree entry is reported as “improvement”. The side effect result in data set [6] was “no side effect”. In addition, in data set [7] (clinical cases), the “effect on cognitive function” value is recorded as “has not been confirmed at this time” and the “improvement of neuropsychiatric symptoms accompanying dementia” value is on record as “effective”. Besides, in data set [7] (human, in vivo), the clinical effect result is “confirmed” and the “effect on severe dementia” value is reported as “confirmed”. Moreover, in data set [8], the cerebral metabolism entry is listed as “stimulated” and the transference into brain result was “found”. The LD50 in data set [1] worked out at 636 mg/kg. In data set [2], this molecule registered a Hygroscopicity of 0.1%. In data set [3], the Appearance entry is reported as “No change” and the Decomposition percentage was found to be 0.2%.

These data come from patent US4713376A, “Dementia-improving and therapeutic agents” (Toyama Chemical Co., Ltd., priority 1985, dated 1987).
